Consider 3 molecules from patent US8097637B2, “Benzoyl-piperidine derivatives as dual modulators of the 5-HT2A and D3 receptors” (Hoffmann-La Roche Inc., priority 2007, dated 2012).

Experiment [1] deals with T1, human 5-HT2A serotonin receptor (Homo sapiens, UniProt P28223).
T1 construct: expressed in transfected cells; host or cells: HEK-293 EBNA cells, transient transfection; membrane preparation
Put plainly: Radioligand binding ([3H]-ketanserin) to cloned human 5-HT2A receptor, HEK-293 EBNA cell membranes. Particulars: 1.1 nM [3H]-ketanserin, 1 h at RT, Cheng-Prusoff. Here is the method: (§1) Membrane Preparation for Human D2, Human D3 and Human 5-HT2A Receptors
(§2) The cells were harvested 48 h post-transfection, washed three times with cold PBS and stored at −80° C. prior to use. The pellet was suspended in cold 50 mM Tris-HCl buffer containing 10 mM EDTA (pH 7.4) and homogenized with a Polytron (Kinematica AG, Basel, Switzerland) for 20-30 sec at 12.000 rpm. After centrifugation at 48.000×g for 30 min at 4° C., the pellet was resuspended in cold 10 mM Tris-HCl buffer containing 0.1 mM EDTA (pH 7.4), homogenized, and centrifuged as above. This pellet was further resuspended in a smaller volume of ice cold 10 mM Tris-HCl buffer containing 0.1 mM EDTA (pH 7.4) and homogenized with a Polytron for 20-30 sec at 12.000 rpm. The protein content of this homogenate was determined with the Bio-Rad (Bradford) Protein Assay (Biorad Laboratories GmbH, München, Germany) according to the instructions of the manufacturer using gamma globulin as the standard. This homogenate was stored at −80° C. in aliquots and thawed immediately prior to use.
(§3) Radioligand Binding Assay Conditions
(§4) Aliquots of membrane preparations were thawed at RT, resuspended in assay buffer (D2, D3: 50 mM Tris-HCl, 120 mM NaCl, 5 mM MgCl2, 1 mM EDTA, 5 mM KCl, 1.5 mM CaCl2, pH=7.4; 5-HT2A: 50 mM Tris-HCl, 10 mM MgCl2, 1 mM EGTA, pH=7.4), homogenized with a Polytron for 20-30 sec at 12.000 rpm and adjusted to a final concentration of approximately 7.5 μg protein/well (D2, D3) and 15 μg protein/well (5-HT2A), respectively.
The binding affinity (Ki) of the compounds was determined using radioligand binding. […] The nonspecific binding was determined with equally composed reaction mixtures in the presence of 10 μM unlabeled spiperone. Per well 45 μl of Microscint 40 (Perkin Elmer, Schwerzenbach, Switzerland) was added, plates for sealed, shaken for 20 min and counted for 3 min on a Topcount Microplate Scintillation Counter (Canberra Packard SA, Zürich, Switzerland) with quenching correction.
(§5) The CPM value for each duplicate of a concentration of competing compound was averaged (yl), then the % specific binding was calculated according to the equation (((yl-non-specific)/(total binding-non-specific))×100). Graphs were plotted with the % specific binding using XLfit, a curve fitting program that iteratively plots the data using Levenburg Marquardt algorithm. The single site competition analysis equation used was y=A+((B−A)/(1+((x/C)^D))), where y is the % specific binding, A is the minimum y, B is the maximum y, C is the IC50, x is the log10 of the concentration of the competing compound and D is the slope of the curve (the Hill Coefficient). […] The affinity constant (Ki) was calculated using the Cheng-Prusoff equation Ki=(IC50/1+([L]/Kd), where [L] is the concentration of radioligand and Kd is the dissociation constant of the radioligand at the receptor as determined by the saturation isotherm.

Experiment [2] concerns the target T2, human D3 dopamine receptor (Homo sapiens, UniProt P35462).
T2 construct: expressed in transfected cells; host or cells: HEK-293 EBNA cells, transient transfection; membrane preparation
Put plainly: Radioligand binding ([3H]-spiperone) to cloned human D3 receptor, HEK-293 EBNA cell membranes. Particulars: 0.5 nM [3H]-spiperone, 1 h at RT, Cheng-Prusoff. Here is the method:
The ability of the compounds to bind to the 5-HT2A, D3 and D2 receptors was determined using radioligand binding to cloned receptors selectively expressed in HEK-293 EBNA cells.
as §1
as §2, with “HEK-293 EBNA cells were transiently transfected with expression plasmids encoding for the human D2 or D3 dopamine- or for the human 5-HT2A serotonin receptor, respectively. The cells” for “The cells”
as §3, §4
(§6) The binding affinity (Ki) of the compounds was determined using radioligand binding. Membranes were incubated in a total volume of 200 μl with a fixed concentration of radioligand (final concentration approximately 0.7 nM [^3H]-spiperone for D2, 0.5 nM [^3H]-spiperone for D3, and 1.1 nM [^3H]-ketanserin for 5-HT2A) and ten concentrations of test compound in ranging between 10 μM-0.1 nM for 1 h at RT. At the end of the incubation, the reaction mixtures were filtered on to unifilter 96-well white microplates with bonded GF/C filters (Packard BioScience, Zürich, Switzerland; preincubated for 1 h in 0.1% polyethylenimine (PEI) in assay buffer) with a Filtermate 196 harvester (Packard BioScience) and washed 3 times with cold assay buffer. The nonspecific binding was determined with equally composed reaction mixtures in the presence of 10 μM unlabeled spiperone. Per well 45 μl of Microscint 40 (Perkin Elmer, Schwerzenbach, Switzerland) was added, plates for sealed, shaken for 20 min and counted for 3 min on a Topcount Microplate Scintillation Counter (Canberra Packard SA, Zürich, Switzerland) with quenching correction.
as §5

For experiment [3], the target named is T3, human D2 dopamine receptor (Homo sapiens, UniProt P14416).
T3 construct: expressed in transfected cells; host or cells: HEK-293 EBNA cells, transient transfection; membrane preparation
T3 sequence (P14416 whole entry): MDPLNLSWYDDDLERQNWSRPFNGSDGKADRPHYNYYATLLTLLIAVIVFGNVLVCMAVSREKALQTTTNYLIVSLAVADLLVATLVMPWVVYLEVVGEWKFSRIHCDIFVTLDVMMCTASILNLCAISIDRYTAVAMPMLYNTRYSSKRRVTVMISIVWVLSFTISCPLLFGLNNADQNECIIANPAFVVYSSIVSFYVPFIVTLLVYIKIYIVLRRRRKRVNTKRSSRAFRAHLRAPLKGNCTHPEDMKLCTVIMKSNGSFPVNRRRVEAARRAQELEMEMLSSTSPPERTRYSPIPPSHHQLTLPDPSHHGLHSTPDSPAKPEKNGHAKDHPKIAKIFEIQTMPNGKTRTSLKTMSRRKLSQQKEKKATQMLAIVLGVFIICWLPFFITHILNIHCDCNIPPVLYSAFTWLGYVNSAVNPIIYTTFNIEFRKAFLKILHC
The experiment is described as follows: Radioligand binding ([3H]-spiperone) to cloned human D2 receptor, HEK-293 EBNA cell membranes. Particulars: 0.7 nM [3H]-spiperone, 1 h at RT, Cheng-Prusoff. On the procedure:
as §1
as §2, with “HEK-293 EBNA cells were transiently transfected with expression plasmids encoding for the human D2 or D3 dopamine- or for the human 5-HT2A serotonin receptor, respectively. The cells” for “The cells”
as §3, §4, §6, §5

T1 sequence (P28223 whole entry): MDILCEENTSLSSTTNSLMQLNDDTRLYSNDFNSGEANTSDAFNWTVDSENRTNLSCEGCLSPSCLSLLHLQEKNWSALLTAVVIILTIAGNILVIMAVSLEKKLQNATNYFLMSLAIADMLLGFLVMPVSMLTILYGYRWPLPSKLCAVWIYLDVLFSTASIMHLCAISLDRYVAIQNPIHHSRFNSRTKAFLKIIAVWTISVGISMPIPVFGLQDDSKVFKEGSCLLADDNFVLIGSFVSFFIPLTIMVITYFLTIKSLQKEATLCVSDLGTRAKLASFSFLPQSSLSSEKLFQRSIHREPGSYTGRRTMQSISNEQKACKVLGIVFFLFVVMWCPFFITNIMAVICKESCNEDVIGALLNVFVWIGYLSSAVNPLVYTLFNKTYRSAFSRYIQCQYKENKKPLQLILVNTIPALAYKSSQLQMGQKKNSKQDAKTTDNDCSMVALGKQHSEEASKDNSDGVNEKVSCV
T2 sequence (P35462 whole entry): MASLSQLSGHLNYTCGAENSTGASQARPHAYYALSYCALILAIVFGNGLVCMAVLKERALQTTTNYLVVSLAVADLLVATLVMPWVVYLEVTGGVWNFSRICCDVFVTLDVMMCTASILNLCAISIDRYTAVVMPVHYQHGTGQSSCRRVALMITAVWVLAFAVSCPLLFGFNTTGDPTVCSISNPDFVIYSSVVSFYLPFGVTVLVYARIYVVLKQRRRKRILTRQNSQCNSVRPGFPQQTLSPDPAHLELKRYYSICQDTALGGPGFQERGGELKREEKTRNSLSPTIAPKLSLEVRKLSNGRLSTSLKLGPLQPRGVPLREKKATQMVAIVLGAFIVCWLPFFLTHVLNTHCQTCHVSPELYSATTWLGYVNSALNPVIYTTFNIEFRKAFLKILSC

As for `COC[C@H]1C[C@H](CC(=O)N[C@H]2CC[C@H](CCN3CCC(C(=O)c4ccc(F)cc4)CC3)CC2)C1` [Example 25, N-trans (4-{2-[4-(4-Fluoro-benzoyl)-piperidin-1-yl]-ethyl}-cyclohexyl)-2-trans (3-methoxymethyl-cyclobutyl)-acetamide], the inhibition constant (Ki) in experiment [1] came to 9 nM; in experiment [2] it was 27 nM; in experiment [3], 1860 nM.

`COC[C@H]1C[C@@H](CC(=O)N[C@H]2CC[C@H](CCN3CCC(C(=O)c4ccc(F)cc4)CC3)CC2)C1` [Example 26, N-trans (4-{2-[4-(4-Fluoro-benzoyl)-piperidin-1-yl]-ethyl}-cyclohexyl)-2-cis (3-methoxymethyl-cyclobutyl)-acetamide]: the inhibition constant (Ki) in experiment [1] stood at 6 nM; in experiment [2], 26 nM; in experiment [3] it was 2030 nM.

With `CC(=O)N[C@H]1CC[C@H](CC(=O)N[C@H]2CC[C@H](CCN3CCC(C(=O)c4ccc(F)cc4)CC3)CC2)CC1` [Example 27, 2-trans (4-Acetylamino-cyclohexyl)-N-trans-(4-{2-[4-(4-fluoro-benzoyl)-piperidin-1-yl]-ethyl}-cyclohexyl)-acetamide], the inhibition constant (Ki) stood at 34 nM in experiment [1], 44 nM in experiment [2] and 2070 nM in experiment [3].
